# Laboratory results taken from PubChem BioAssay (NCI).
#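 GI50: concentration for 50% inhibition of growth. Definition used: TGI = concentration required for complete inhibition of growth.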
# How the values were obtained:
# Assay in all cases: NCI-60 cell line screen, 384-well format
# OVCAR-8 ovarian = tested on: OVCAR-8 ovarian
# HOP-62 NSCLC = tested on: HOP-62 NSCLC
# HT29 colon = tested on: HT29 colon
# LOX IMVI melanoma = tested on: LOX IMVI melanoma
# HCC-2998 colon = tested on: HCC-2998 colon
# MCF7 breast = tested on: MCF7 breast
# 786-0 renal = tested on: 786-0 renal
# UACC-257 melanoma = tested on: UACC-257 melanoma
# SK-MEL-28 melanoma = tested on: SK-MEL-28 melanoma
# EKVX NSCLC = tested on: EKVX NSCLC
# SW-620 colon = tested on: SW-620 colon
# MALME-3M melanoma = tested on: MALME-3M melanoma
# MDA-MB-468 breast = tested on: MDA-MB-468 breast
structure (smiles),measurement,setting,value
O=C(c1ccccc1O)c1[nH]c(Cl)c(Cl)c1-n1c(C(=O)c2ccccc2O)cc(Cl)c1Cl,GI50,OVCAR-8 ovarian,276 nM
same,TGI,OVCAR-8 ovarian,959 nM
same,GI50,HOP-62 NSCLC,552 nM
same,TGI,HOP-62 NSCLC,1590 nM
same,GI50,HT29 colon,518 nM
same,TGI,HT29 colon,4330 nM
same,GI50,LOX IMVI melanoma,833 nM
same,TGI,LOX IMVI melanoma,2330 nM
same,GI50,HCC-2998 colon,537 nM
same,TGI,HCC-2998 colon,1950 nM
same,GI50,MCF7 breast,263 nM
same,TGI,MCF7 breast,1230 nM
same,GI50,786-0 renal,619 nM
same,TGI,786-0 renal,1920 nM
same,GI50,UACC-257 melanoma,461 nM
same,TGI,UACC-257 melanoma,1650 nM
same,GI50,SK-MEL-28 melanoma,367 nM
same,TGI,SK-MEL-28 melanoma,1430 nM
same,GI50,EKVX NSCLC,230 nM
same,TGI,EKVX NSCLC,842 nM
same,GI50,SW-620 colon,367 nM
same,TGI,SW-620 colon,1540 nM
same,GI50,MALME-3M melanoma,670 nM
same,TGI,MALME-3M melanoma,2170 nM
same,GI50,MDA-MB-468 breast,13 nM
same,TGI,MDA-MB-468 breast,267 nM
